Test results from article PMC12586598, “A novel long-acting C5a-blocking cyclic peptide prevents sepsis-induced organ dysfunction via effective blockade of the inflammatory cascade” (Signal Transduction and Targeted Therapy, 2025).
Where a SMILES comes first, the peptide text is derived from it.

Test system: CLP-induced septic mice
Assay: Inflammatory factors and chemokines in PLF, Luminex, CLP mice
Type: in vivo, mouse
Procedure: Twenty-four hours later, whole blood and PLF were collected under anesthesia. The plasma and PLF supernatants were further isolated via centrifugation (3000 × g, 10 min, 4 °C) and subjected to inflammatory factor and chemokine profiling via the Luminex® multiplex […] Biotechnologies, Shanghai, China). The percent inhibition was calculated relative to that of the sham group (set as 0%).

[1] = 100 μg/20 g, 24 h after CLP, relative to Sham set as 0%

CSCC[C@@H]1NC(=O)[C@@H]2CCCN2C(=O)[C@H](CCSC)NC(=O)[C@H](CO)NC(=O)[C@H](Cc2c[nH]cn2)NC(=O)CNC(=O)[C@H](CO)NC(=O)[C@H](Cc2ccccc2)NC(=O)[C@H](CCCNC(=N)N)NC(=O)[C@H](CCC(=O)O)NC(=O)[C@H](Cc2ccccc2)NC(=O)[C@H](C(C)C)NC1=O [Cp1] (cyclo(HSMPMVFERFSG))
decrease of CCL2 in PLF [1]: 96% | decrease of CCL3 in PLF [1]: 87% | decrease of CCL5 in PLF [1]: 89% | decrease of CCL7 in PLF [1]: 69% | decrease of CCL12 in PLF [1]: 90% | decrease of CXCL1 in PLF [1]: 75% | decrease of CXCL5 in PLF [1]: 94% | decrease of IL-1β in PLF [1]: 62% | decrease of IL-6 in PLF [1]: 73% | decrease of TNF-α in PLF [1]: 77% | expression of inflammatory factors and chemokines in PLF, high dose (300 μg of Cp1): effectively suppressed | attenuation of IL-6 in PLF (CLP-induced septic mice, first of four 'corresponding' values): 3.7 fold | attenuation of CXCL1 in PLF (CLP-induced septic mice, fourth of four 'corresponding' values): 4.3 fold | attenuation of CCL2 in PLF (CLP-induced septic mice, third of four 'corresponding' values): 25 fold
